Experimental data as given in US9663473B2 (Actelion Pharmaceuticals Ltd, priority 2013, dated 2017).
Where a name gives a salt, the structure may show the parent alone.

Target: T1, recombinant human ALX receptor (Homo sapiens, UniProt P25090)
T1 construct: expressed in transfected cells; host or cells: HEK293 (HEK293-hALXR-Gα16)
T1 sequence (P25090 1-351): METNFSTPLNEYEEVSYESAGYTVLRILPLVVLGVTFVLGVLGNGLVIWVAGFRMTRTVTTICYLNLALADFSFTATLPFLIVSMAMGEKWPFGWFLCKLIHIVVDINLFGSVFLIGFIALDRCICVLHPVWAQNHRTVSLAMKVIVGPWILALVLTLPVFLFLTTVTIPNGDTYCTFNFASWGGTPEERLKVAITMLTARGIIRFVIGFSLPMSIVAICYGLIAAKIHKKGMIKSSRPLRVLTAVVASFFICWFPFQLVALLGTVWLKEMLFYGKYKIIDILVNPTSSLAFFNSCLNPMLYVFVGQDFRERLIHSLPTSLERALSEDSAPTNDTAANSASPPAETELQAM
Test: Intracellular calcium measurements (FLIPR), ALX receptor agonistic activity
Type: cell-based
Conditions: HEK293-hALXR-Gα16 cells, Fluo-4 calcium signal, normalized to WKYMVm 10 nM
How it was run: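 Agonist-induced calcium flux was read by FLIPR (488/540 nm) as baseline-subtracted peak emission, expressed relative to WKYMVm at 10 nM final. Cells used: HEK293-hALXR-Gα16, dye-loaded 60 min at 37° C. with 1 μM Fluo-4 AM before compound dose-response addition.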

| SMILES | EC50 [nM] |
| --- | --- |
| COc1ccc(C[C@@H](NC(=O)N[C@H]2CC[C@H](O)CC2)c2nc3ccccc3[nH]2)cc1 [Example 4, 1-((R)-1-(1H-Benzo[d]imidazol-2-yl)-2-(4-methoxyphenyl)ethyl)-3-(trans-4-hydroxycyclohexyl)urea] | 7.8 |
| COc1ccc(CC(NC(=O)NC2CCOCC2)c2nc3ccccc3[nH]2)cc1 (centres unmarked) [Example 10, 1-(1-(1H-Benzo[d]imidazol-2-yl)-2-(4-methoxyphenyl)ethyl)-3-(tetrahydro-2H-pyran-4-yl)urea] | 113 |
| COc1ccc(CC(NC(=O)NC2CCCC2)c2nc3ccccc3[nH]2)cc1 (centres unmarked) [Example 12, 1-(1-(1H-Benzo[d]imidazol-2-yl)-2-(4-methoxyphenyl)ethyl)-3-cyclopentylurea] | 45 |
| COc1ccc(C[C@@H](NC(=O)NC2CCC(F)(F)CC2)c2nc3ccccc3[nH]2)cc1 [Example 14, (R)-1-(1-(1H-Benzo[d]imidazol-2-yl)-2-(4-methoxyphenyl)ethyl)-3-(4,4-difluorocyclohexyl)urea] | 38 |
| COc1ccc(C[C@@H](NC(=O)NC2CCCCC2)c2nc3ccccc3[nH]2)cc1 [Example 17, (R)-1-(1-(1H-Benzo[d]imidazol-2-yl)-2-(4-methoxyphenyl)ethyl)-3-cyclohexylurea hydrochloride] | 47 |
| COc1ccc(C[C@@H](NC(=O)N[C@@H]2CCC[C@@H]2O)c2nc3ccccc3[nH]2)cc1 [Example 21, 1-((R)-1-(1H-Benzo[d]imidazol-2-yl)-2-(4-methoxyphenyl)ethyl)-3-((1R,2S)-2-hydroxycyclopentyl)urea] | 29 |
| COc1ccc(C[C@@H](NC(=O)NC2CCC(C)CC2)c2nc3ccccc3[nH]2)cc1 (stereo partly drawn) [Example 22, (R)-1-(1-(1H-Benzo[d]imidazol-2-yl)-2-(4-methoxyphenyl)ethyl)-3-(4-methylcyclohexyl)urea] | 85 |
| COc1ccc(C[C@@H](NC(=O)NC2CCCCC2C)c2nc3ccccc3[nH]2)cc1 (stereo partly drawn) [Example 23, 1-((R)-1-(1H-Benzo[d]imidazol-2-yl)-2-(4-methoxyphenyl)ethyl)-3-(2-methylcyclohexyl)urea] | 124 |
| COc1ccc(C[C@@H](NC(=O)NC2CC3CCC2C3)c2nc3ccccc3[nH]2)cc1 (stereo partly drawn) [Example 25, 1-((R)-1-(1H-Benzo[d]imidazol-2-yl)-2-(4-methoxyphenyl)ethyl)-3-(bicyclo[2.2.1]heptan-2-yl)urea] | 9.7 |
| COc1ccc(C[C@@H](NC(=O)NCc2ccccc2Cn2cncn2)c2nc3ccccc3[nH]2)cc1 [Example 31, (R)-1-(2-((1H-1,2,4-Triazol-1-yl)methyl)benzyl)-3-(1-(1H-benzo[d]imidazol-2-yl)-2-(4-methoxyphenyl)ethyl)urea] | 26 |
| COc1ccc(C[C@@H](NC(=O)NC2CCCC(C)C2)c2nc3ccccc3[nH]2)cc1 (stereo partly drawn) [Example 33, 1-((R)-1-(1H-Benzo[d]imidazol-2-yl)-2-(4-methoxyphenyl)ethyl)-3-(3-methylcyclohexyl)urea] | 130 |
| O=C(N[C@H](Cc1ccc(Br)cc1)c1nc2ccccc2[nH]1)N[C@H]1CC[C@H](O)CC1 [Example 35, 1-((R)-1-(1H-Benzo[d]imidazol-2-yl)-2-(4-bromophenyl)ethyl)-3-(trans-4-hydroxycyclohexyl)urea] | 5.4 |
| COc1ccc(C[C@@H](NC(=O)N[C@H]2CC[C@H](O)CC2)c2nc3ccc(Cl)cc3[nH]2)cc1 [Example 36, 1-((R)-1-(6-Chloro-1H-benzo[d]imidazol-2-yl)-2-(4-methoxyphenyl)ethyl)-3-(trans-4-hydroxycyclohexyl)urea] | 1 |
| COc1ccc(CC(NC(=O)NC2CCCC(O)C2)c2nc3ccccc3[nH]2)cc1 (centres unmarked) [Example 37, 1-(1-(1H-Benzo[d]imidazol-2-yl)-2-(4-methoxyphenyl)ethyl)-3-(3-hydroxycyclohexyl)urea] | 27 |
| COc1ccc(CC(NC(=O)NCCc2c(C)noc2C)c2nc3ccccc3[nH]2)cc1 (centres unmarked) [Example 42, 1-(1-(1H-Benzo[d]imidazol-2-yl)-2-(4-methoxyphenyl)ethyl)-3-(2-(3,5-dimethylisoxazol-4-yl)ethyl)urea] | 814 |

Second part, the molecule after the results:

| EC50 [nM] | SMILES |
| --- | --- |
| 602 | COc1ccc(C[C@@H](NC(=O)NCc2cccc(OC)c2)c2nc3ccccc3[nH]2)cc1 [Example 5, (R)-1-(1-(1H-Benzo[d]imidazol-2-yl)-2-(4-methoxyphenyl)ethyl)-3-(3-methoxybenzyl)urea] |
| 378 | COc1ccc(C[C@@H](NC(=O)NCCc2cccc(OC)c2)c2nc3ccccc3[nH]2)cc1 [Example 6, (R)-1-(1-(1H-Benzo[d]imidazol-2-yl)-2-(4-methoxyphenyl)ethyl)-3-(3-methoxyphenethyl)urea] |
| 315 | COc1ccc(C[C@@H](NC(=O)Nc2cc(C)n(C)n2)c2nc3ccccc3[nH]2)cc1 [Example 7, (R)-1-(1-(1H-Benzo[d]imidazol-2-yl)-2-(4-methoxyphenyl)ethyl)-3-(1,5-dimethyl-1H-pyrazol-3-yl)urea] |
| 593 | COc1ccc(CC(NC(=O)NCCc2ccccn2)c2nc3ccccc3[nH]2)cc1 (centres unmarked) [Example 8, 1-(1-(1H-Benzo[d]imidazol-2-yl)-2-(4-methoxyphenyl)ethyl)-3-(2-(pyridin-2-yl)ethyl)urea] |
| 450 | COc1ccc(CC(NC(=O)NCC(F)(F)F)c2nc3ccccc3[nH]2)cc1 (centres unmarked) [Example 9, 1-(1-(1H-Benzo[d]imidazol-2-yl)-2-(4-methoxyphenyl)ethyl)-3-(2,2,2-trifluoroethyl)urea] |
| 62 | COc1ccc(CC(NC(=O)NC2CCC2)c2nc3ccccc3[nH]2)cc1 (centres unmarked) [Example 11, 1-(1-(1H-Benzo[d]imidazol-2-yl)-2-(4-methoxyphenyl)ethyl)-3-cyclobutylurea] |
| 27 | COc1ccc(C[C@@H](NC(=O)NC2CC=CC2)c2nc3ccccc3[nH]2)cc1 [Example 13, (R)-1-(1-(1H-Benzo[d]imidazol-2-yl)-2-(4-methoxyphenyl)ethyl)-3-(cyclopent-3-en-1-yl)urea hydrochloride] |
| 59 | COc1ccc(C[C@@H](NC(=O)NC2CCc3ccccc3C2)c2nc3ccccc3[nH]2)cc1 (stereo partly drawn) [Example 15, 1-((R)-1-(1H-Benzo[d]imidazol-2-yl)-2-(4-methoxyphenyl)ethyl)-3-(1,2,3,4-tetrahydronaphthalen-2-yl)urea hydrochloride] |
| 600 | COc1ccc(C[C@@H](NC(=O)NC2CC2)c2nc3ccccc3[nH]2)cc1 [Example 19, (R)-1-(1-(1H-Benzo[d]imidazol-2-yl)-2-(4-methoxyphenyl)ethyl)-3-cyclopropylurea] |
| 712 | COc1ccc(C[C@@H](NC(=O)N[C@H]2CCc3ccccc32)c2nc3ccccc3[nH]2)cc1 [Example 20, 1-((R)-1-(1H-Benzo[d]imidazol-2-yl)-2-(4-methoxyphenyl)ethyl)-3-((S)-2,3-dihydro-1H-inden-1-yl)urea] |
| 109 | COc1ccc(C[C@@H](NC(=O)NC2Cc3ccccc3C2)c2nc3ccccc3[nH]2)cc1 [Example 26, (R)-1-(1-(1H-Benzo[d]imidazol-2-yl)-2-(4-methoxyphenyl)ethyl)-3-(2,3-dihydro-1H-inden-2-yl)urea] |
| 26 | COc1ccc(C[C@@H](NC(=O)NC2CCCc3ccccc32)c2nc3ccccc3[nH]2)cc1 (stereo partly drawn) [Example 27, 1-((R)-1-(1H-Benzo[d]imidazol-2-yl)-2-(4-methoxyphenyl)ethyl)-3-(1,2,3,4-tetrahydronaphthalen-1-yl)urea] |
| 26 | COc1ccc(C[C@@H](NC(=O)NC2CCc3cccc(OC)c3C2)c2nc3ccccc3[nH]2)cc1 (stereo partly drawn) [Example 30, 1-((R)-1-(1H-Benzo[d]imidazol-2-yl)-2-(4-methoxyphenyl)ethyl)-3-(8-methoxy-1,2,3,4-tetrahydronaphthalen-2-yl)urea] |
| 198 | COc1ccc(CC(NC(=O)NCc2nc3ccccc3s2)c2nc3ccccc3[nH]2)cc1 (centres unmarked) [Example 38, 1-(1-(1H-Benzo[d]imidazol-2-yl)-2-(4-methoxyphenyl)ethyl)-3-(benzo[d]thiazol-2-ylmethyl)urea] |
| 516 | COc1ccc(CC(NC(=O)NCc2cccc(OC)c2)c2nc3ccccc3[nH]2)cc1 (centres unmarked) [Example 39, 1-(1-(1H-Benzo[d]imidazol-2-yl)-2-(4-methoxyphenyl)ethyl)-3-(3-methoxybenzyl)urea] |
| 62 | COc1ccc(CC(NC(=O)NCCc2ccccc2OC)c2nc3ccccc3[nH]2)cc1 (centres unmarked) [Example 40, 1-(1-(1H-Benzo[d]imidazol-2-yl)-2-(4-methoxyphenyl)ethyl)-3-(2-methoxyphenethyl)urea] |
| 776 | COc1ccc(CC(NC(=O)N[C@H](C)c2cccc(Cl)c2)c2nc3ccccc3[nH]2)cc1 (stereo partly drawn) [Example 41, 1-(1-(1H-Benzo[d]imidazol-2-yl)-2-(4-methoxyphenyl)ethyl)-3-((R)-1-(3-chlorophenyl)ethyl)urea] |
| 611 | COc1ccc(CC(NC(=O)NCc2ccc(Cl)cc2)c2nc3ccccc3[nH]2)cc1 (centres unmarked) [Example 43, 1-(1-(1H-Benzo[d]imidazol-2-yl)-2-(4-methoxyphenyl)ethyl)-3-(4-chlorobenzyl)urea] |
| 466 | COc1ccc(CC(NC(=O)NCc2ccccc2OC)c2nc3ccccc3[nH]2)cc1 (centres unmarked) [Example 44] |
| 760 | COc1ccc(CC(NC(=O)NCc2ccccc2Cl)c2nc3ccccc3[nH]2)cc1 (centres unmarked) [Example 45, 1-(1-(1H-Benzo[d]imidazol-2-yl)-2-(4-methoxyphenyl)ethyl)-3-(2-chlorobenzyl)urea] |
